Our source for the hydrophilicity and water solubility values is patent US9096632B2, “Modulator of activity of adenylate cyclase” (Public University Corporation Yokohama City University, priority 2010, dated 2015).

The nature of data set [1]: Water solubility / hydrophilicity (stock solutions in pure water). The class given is physicochemical. Conditions: in words. As for the experimental part:
The thus synthesized position 2-substituted derivative (V2E), position 3-substituted derivative (V3E) and position 5-substituted derivative (V5E) were dissolved in pure water to give a concentration of 10 mM, to thereby prepare stock solutions. Vidarabine was dissolved in 100% dimethylsulfoxide to thereby prepare a 10 mM stock solution.
The newly synthesized three vidarabine derivatives (FIG. 1) were dissolved in pure water to thereby prepare 10 mM stock solutions. Since vidarabine infusion of about 2 mM is used in clinical scenes as an antiherpes therapeutic (Arasena-A for intravenous infusion; Mochida Pharmaceutical Co., Ltd.), it was possible to prepare solutions at concentrations about 5 times higher than that of the infusion. In the present study, vidarabine was dissolved in 100% DMSO to prepare a 10 mM stock solution.

The conditions of data set [2]: vidarabine, background statement; cited from earlier work.

Consider `CN(C)CC(=O)OC1C(O)C(CO)OC1n1cnc2c(N)ncnc21` (centres unmarked) [V2E, 2-O—(N,N-Dimethylglycyl)Vidarabine], for which, in data set [1], the hydrophilicity result is listed as “highly hydrophilic”.
For the compound `Nc1ncnc2c1ncn2[C@@H]1O[C@H](CO)[C@@H](O)[C@@H]1O` [vidarabine, reference compound], the water solubility entry in data set [2] was “poor”.
